Results reported in patent publication US20250340563A1, “FUSED PYRIDAZINE DERIVATIVES AS NLRP3 INHIBITORS” (Takeda Pharmaceutical Company Limited, priority 2022, published 2025).

Legend:
NF-κB pathway = test: TNF-α assay in IFN-γ-differentiated, LPS-stimulated THP-1 cells (ELISA); assay type: cell-based; conditions: Homo sapiens, 50 ng/mL LPS, 3 hours
Description: Monocytic THP-1 cells (ATCC: TIB-202) are maintained in accordance with the provider's instructions in RPMI media (Life Technologies, Cat #A10491-01); RPMI is supplemented with 10% heat inactivated fetal bovine serum (Hyclone Cat #SH30396.03). The cells are differentiated into macrophages by the addition of 25 ng/mL IFN-γ for 24 hours at 37° C./5% CO2. Media is exchanged with fresh media with no FBS. The cells are plated at 40,000 cells per well in 384-well flat-bottom cell culture plates (Costar 3764) containing compounds (added in 1:1000) in a 1:3.16 serial dilution series in DMSO and are incubated for 30 minutes at 37° C./5% CO2. The NF-κB pathway is activated with the addition of 50 ng/mL LPS and the cells are incubated for 3 hours at 37° C./5% CO2. At the end of the incubation period, supernatant (40 μL) is removed, and […] are monitored using an ELISA (Human TNF-α ELISA, R&D systems, Cat #DY210) according to the manufacturer's instructions.
The IC50 values are calculated from a plot of percentage of inhibition versus the inhibitor concentration by a logistics curve fit according to: Y=[Bottom+(Top−Bottom)]/(1+10^[(Log IC50−X)·Hill Slope], where Y is the % inhibition at the inhibitor concentration, X, “Bottom” is the lowest inhibition value, i.e. 0%, “Top” is the maximum inhibition value, i.e. 100%, and the “Hill Slope” describes the slope of the sigmoidal curve between the “Bottom” and “Top” values. The curve fitting was conducted with internally developed software.

NLRP3 inflammasome = NLRP3 inflammasome (Homo sapiens, UniProt Q96P20); test: IL-1β assay in IFN-γ-differentiated, LPS-primed, ATP-activated THP-1 cells (ELISA); assay type: cell-based; conditions: 50 ng/mL LPS priming, 2.5 mM ATP activation, 2 hours
Sequence of NLRP3 inflammasome (Q96P20 whole entry): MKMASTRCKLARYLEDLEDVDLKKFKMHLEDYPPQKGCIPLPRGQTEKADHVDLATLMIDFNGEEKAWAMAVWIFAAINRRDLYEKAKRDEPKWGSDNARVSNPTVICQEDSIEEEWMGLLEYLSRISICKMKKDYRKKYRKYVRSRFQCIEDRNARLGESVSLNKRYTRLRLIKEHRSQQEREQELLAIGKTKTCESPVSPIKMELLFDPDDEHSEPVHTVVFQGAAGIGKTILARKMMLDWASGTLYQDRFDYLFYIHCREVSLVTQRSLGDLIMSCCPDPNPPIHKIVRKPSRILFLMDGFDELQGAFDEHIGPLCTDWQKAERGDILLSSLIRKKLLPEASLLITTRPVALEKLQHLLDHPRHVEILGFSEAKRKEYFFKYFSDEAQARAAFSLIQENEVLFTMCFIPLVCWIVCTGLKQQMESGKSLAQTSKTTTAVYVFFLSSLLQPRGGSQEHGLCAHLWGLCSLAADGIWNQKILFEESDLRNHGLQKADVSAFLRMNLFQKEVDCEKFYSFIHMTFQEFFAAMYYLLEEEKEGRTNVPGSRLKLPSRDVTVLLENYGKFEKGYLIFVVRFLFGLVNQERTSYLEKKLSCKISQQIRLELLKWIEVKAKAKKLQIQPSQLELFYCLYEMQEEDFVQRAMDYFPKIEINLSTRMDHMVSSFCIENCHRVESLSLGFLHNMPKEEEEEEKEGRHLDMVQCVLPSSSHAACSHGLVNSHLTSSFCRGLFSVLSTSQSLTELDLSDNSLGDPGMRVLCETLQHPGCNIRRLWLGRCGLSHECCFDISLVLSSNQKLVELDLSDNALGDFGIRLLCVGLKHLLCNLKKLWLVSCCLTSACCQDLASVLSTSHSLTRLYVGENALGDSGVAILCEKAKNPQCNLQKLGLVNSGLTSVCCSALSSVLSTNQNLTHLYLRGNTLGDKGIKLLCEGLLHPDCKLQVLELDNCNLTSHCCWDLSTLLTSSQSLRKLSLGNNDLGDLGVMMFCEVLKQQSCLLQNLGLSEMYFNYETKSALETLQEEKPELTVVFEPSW
Outline: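 Supernatant IL-1β is quantified by ELISA after 2 h of 2.5 mM ATP stimulation at 37 °C, with IC50 taken from a four-parameter fit of % inhibition. Before this, THP-1 macrophages (25 ng/mL IFN-γ, 24 h) were LPS-primed (50 ng/mL, 24 h, no FBS) and exposed to serially diluted compound for 30 min.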

Compound	IC50 (NF-κB pathway) [nM]	IC50 (NLRP3 inflammasome) [nM]
C[C@]1(O)C[C@@H](Nc2nnc(-c3ccc(Cl)cc3)c3ccccc23)C1 [Example 118, cis-3-((4-(4-chlorophenyl)phthalazin-1-yl)amino)-1-methylcyclobutan-1-ol]	> 30000	334
COc1ccc(-c2nnc(Nc3cccc(O)c3)c3ccccc23)cc1 [Example 1, 3-((4-(4-methoxyphenyl)phthalazin-1-yl)amino)phenol]	7200	1880
Clc1ccc(-c2nnc(NC3CCCN(C4CC4)C3)c3cnccc23)cc1 (stereo not shown) [Example 88, 1-(4-chlorophenyl)-N-(1-cyclopropylpiperidin-3-yl)pyrido[3,4-d]pyridazin-4-amine]	> 30000	8
COc1ccc(-c2nnc(N[C@@H]3C[C@@H](F)CN(C(C)C)C3)c3ccccc23)cc1 [Example 196, N-((3R,5R)-5-fluoro-1-isopropylpiperidin-3-yl)-4-(4-methoxyphenyl)phthalazin-1-amine]	> 30000	12
COc1ccc(-c2nnc(N[C@@H]3CCCN(C4(C)CC4)C3)c3cnccc23)cc1 [Example 168, (R)-1-(4-methoxyphenyl)-N-(1-(1-methylcyclopropyl)piperidin-3-yl)pyrido[3,4-d]pyridazin-4-amine]	> 30000	5
CN1CCC[C@@H](Nc2nnc(-c3ccc(Cl)cc3)c3ccccc23)C1 [Example 139, (R)-4-(4-chlorophenyl)-N-(1-methylpiperidin-3-yl)phthalazin-1-amine]	> 30000	31
OC12CCC(Nc3nnc(-c4ccc(Cl)cc4)c4ccccc34)(CC1)C2 [Example 127, 4-((4-(4-chlorophenyl)phthalazin-1-yl)amino)bicyclo[2.2.1]heptan-1-ol]	> 30000	228
CN1C[C@H](F)C[C@@H](Nc2nnc(-c3ccc(Cl)cc3F)c3c2CCOC3)C1 [Example 211, 4-(4-chloro-2-fluorophenyl)-N-((3R,5R)-5-fluoro-1-methylpiperidin-3-yl)-7,8-dihydro-5H-pyrano[3,4-d]pyridazin-1-amine]	> 30000	1150
CCN1C[C@H](F)C[C@@H](Nc2nnc(-c3ccc(OC)cc3)c3ccccc23)C1 [Example 193, N-((3R,5R)-1-ethyl-5-fluoropiperidin-3-yl)-4-(4-methoxyphenyl)phthalazin-1-amine]	> 30000	22
CN1CCCC(Nc2nnc(-c3ccc(Cl)cc3)c3ccccc23)C1=O (stereo not shown) [Example 111, 3-((4-(4-chlorophenyl)phthalazin-1-yl)amino)-1-methylpiperidin-2-one]	> 30000	3780
CN1CC2CC2(Nc2nnc(-c3ccc(Cl)cc3)c3ccccc23)C1 (stereo not shown) [Example 152, 4-(4-chlorophenyl)-N-(3-methyl-3-azabicyclo[3.1.0]hexan-1-yl)phthalazin-1-amine]	> 30000	490
CN1CCC[C@@H](Nc2nnc(-c3ccc(Cl)cc3)c3ccncc23)C1 [Example 64, (R)-1-(4-chlorophenyl)-N-(1-methylpiperidin-3-yl)pyrido[3,4-d]pyridazin-4-amine]	> 30000	58
COc1ccc(-c2nnc(N[C@@H]3C[C@@H](F)CN(C)C3)c3ccccc23)c(F)c1 [Example 178, N-((3R,5R)-5-fluoro-1-methylpiperidin-3-yl)-4-(2-fluoro-4-methoxyphenyl)phthalazin-1-amine]	> 30000	81
Cc1nccc2c(-c3ccc(Cl)cc3)nnc(NC3CCCN(C)C3)c12 (stereo not shown) [Example 76, 1-(4-chlorophenyl)-5-methyl-N-(1-methylpiperidin-3-yl)pyrido[3,4-d]pyridazin-4-amine]	> 30000	178
CN1CCC[C@@H](Nc2nnc(-c3ccc(Cl)cc3O)c3cnccc23)C1 [Example 75, (R)-5-chloro-2-(1-((1-methylpiperidin-3-yl)amino)pyrido[3,4-d]pyridazin-4-yl)phenol]	> 30000	3
COc1ccc(-c2nnc(N[C@@H]3C[C@@H](F)CN(CC4CC4)C3)c3ccccc23)cc1 [Example 194, N-((3R,5R)-1-(cyclopropylmethyl)-5-fluoropiperidin-3-yl)-4-(4-methoxyphenyl)phthalazin-1-amine]	> 30000	35
CN1CCCC(Nc2nnc(-c3ccc(C(F)F)cc3)c3ccccc23)C1 (stereo not shown) [Example 21, 4-(4-(difluoromethyl)phenyl)-N-(1-methylpiperidin-3-yl)phthalazin-1-amine]	> 30000	75
Oc1ccccc1-c1nnc(N[C@@H]2CCCN(CCF)C2)c2ccccc12 [Example 60, (R)-2-(4-((1-(2-fluoroethyl)piperidin-3-yl)amino)phthalazin-1-yl)phenol]	21400	27
CN1CCC[C@@H](Nc2nnc(-c3ccc(F)cc3O)c3ccncc23)C1 [Example 93, (R)-5-fluoro-2-(4-((1-methylpiperidin-3-yl)amino)pyrido[3,4-d]pyridazin-1-yl)phenol]	> 30000	30
COc1ccc(-c2nnc(N[C@@H]3CCCN(CCF)C3)c3ccccc23)cc1 [Example 58, (R)—N-(1-(2-fluoroethyl)piperidin-3-yl)-4-(4-methoxyphenyl)phthalazin-1-amine]	> 30000	66
COc1cc2c(-c3ccc(Cl)cc3)nnc(NC3CCCN(C)C3)c2cn1 (stereo not shown) [Example 83, 1-(4-chlorophenyl)-7-methoxy-N-(1-methylpiperidin-3-yl)pyrido[3,4-d]pyridazin-4-amine]	> 30000	82
COc1ccc(-c2nnc(N[C@@H]3CCCN(CCF)C3)c3cnccc23)cc1 [Example 84, (R)—N-(1-(2-fluoroethyl)piperidin-3-yl)-1-(4-methoxyphenyl)pyrido[3,4-d]pyridazin-4-amine]	> 30000	79

Continued, values first:

IC50 (NF-κB pathway) [nM]	IC50 (NLRP3 inflammasome) [nM]	Compound
> 30000	1050	COc1ccc(-c2nnc(N[C@@H]3C[C@@H](F)CN(C)C3)c3c2COCC3)c(F)c1 [Example 209, N-((3R,5R)-5-fluoro-1-methylpiperidin-3-yl)-4-(2-fluoro-4-methoxyphenyl)-7,8-dihydro-5H-pyrano[3,4-d]pyridazin-1-amine]
> 30000	113	Cc1cc(Cl)ccc1-c1nnc(NC2CCCN(C)C2)c2ccccc12 (stereo not shown) [Example 46, 4-(4-chloro-2-methylphenyl)-N-(1-methylpiperidin-3-yl)phthalazin-1-amine]
> 30000	3	CN1C[C@H](F)C[C@@H](Nc2nnc(-c3ccc(Cl)cc3O)c3c2CCOC3)C1 [Example 200, 5-chloro-2-(1-(((3R,5R)-5-fluoro-1-methylpiperidin-3-yl)amino)-7,8-dihydro-5H-pyrano[3,4-d]pyridazin-4-yl)phenol]
> 30000	2	CN1CCC[C@@H](Nc2nnc(-c3ccc(Cl)cc3O)c3c2CCOC3)C1 [Example 224, (R)-5-chloro-2-(1-((1-methylpiperidin-3-yl)amino)-7,8-dihydro-5H-pyrano[3,4-d]pyridazin-4-yl)phenol]
> 30000	160	COc1ccc(-c2nnc(N[C@@H]3C[C@@H](F)CN(C)C3)c3c2CCOC3)c(F)c1 [Example 215, N-((3R,5R)-5-fluoro-1-methylpiperidin-3-yl)-1-(2-fluoro-4-methoxyphenyl)-7,8-dihydro-5H-pyrano[3,4-d]pyridazin-4-amine]
> 30000	53	COc1ccc(-c2nnc(N[C@@H]3C[C@@H](F)CN(C)C3)c3ccccc23)cc1 [Example 177, N-((3R,5R)-5-fluoro-1-methylpiperidin-3-yl)-4-(4-methoxyphenyl)phthalazin-1-amine]
> 30000	2	Oc1cc(Cl)ccc1-c1nnc(N[C@@H]2CCCN(CCF)C2)c2cnccc12 [Example 85, (R)-5-chloro-2-(4-((1-(2-fluoroethyl)piperidin-3-yl)amino)pyrido[3,4-d]pyridazin-1-yl)phenol]
> 30000	1290	COc1ccc(-c2nnc(N[C@H]3C[C@@](C)(O)C3)c3ccccc23)cc1 [Example 124, cis-3-((4-(4-methoxyphenyl)phthalazin-1-yl)amino)-1-methylcyclobutan-1-ol]
> 30000	21	Oc1ccccc1-c1nnc(N[C@@H]2CCCN(CCF)C2)c2cnccc12 [Example 86, (R)-2-(4-((1-(2-fluoroethyl)piperidin-3-yl)amino)pyrido[3,4-d]pyridazin-1-yl)phenol]
7760	1090	Oc1cccc(Nc2nnc(-c3ccc(C4CC4)cc3)c3ccccc23)c1 [Example 19, 3-((4-(4-cyclopropylphenyl)phthalazin-1-yl)amino)phenol]
